Laboratory results as given in ChEMBL document CHEMBL1649130, “In vitro activity of Iclaprim against respiratory and bacteremic isolates of Streptococcus pneumoniae” (Antimicrob Agents Chemother, 2009).
In brackets after ≈: the same amount, converted by molar mass.

Tests used:
[1] = system: Streptococcus pneumoniae; experiment: Antimicrobial activity against Streptococcus pneumoniae assessed as resistant isolates broth microdilution method; assay type: functional
[2] = system: Streptococcus pneumoniae; experiment: Antimicrobial activity against compound-susceptible Streptococcus pneumoniae by broth microdilution method
[3] = system: Streptococcus pneumoniae; experiment: Antimicrobial activity against compound-intermediate Streptococcus pneumoniae by broth microdilution method
[4] = system: Streptococcus pneumoniae; experiment: Antimicrobial activity against compound-resistant Streptococcus pneumoniae by broth microdilution method
[5] = system: Streptococcus pneumoniae; experiment: Antimicrobial activity against SXT-susceptible Streptococcus pneumoniae by broth microdilution method; assay type: functional
[6] = system: Streptococcus pneumoniae; experiment: Antimicrobial activity against penicillin-susceptible Streptococcus pneumoniae by broth microdilution method; assay type: functional
[7] = system: Streptococcus pneumoniae; experiment: Antimicrobial activity against Ciprofloxacin-susceptible Streptococcus pneumoniae by broth microdilution method; assay type: functional
[8] = system: Streptococcus pneumoniae; experiment: Antimicrobial activity against Doxycycline-susceptible Streptococcus pneumoniae by broth microdilution method; assay type: functional
[9] = Drug concentration in alveolar macrophages of patient with Streptococcus pneumoniae infections at 1.6 mg/kg, iv administered as single 60 mins infusion measured after 1 to 2 hrs; assay type: ADME, organism-based, Macrophage; design: dose 1.6 mg/kg, route intravenous; details: human, in vivo
[10] = Drug concentration in epithelial lining fluid of patient with Streptococcus pneumoniae infections at 1.6 mg/kg, iv administered as single 60 mins infusion measured after 1 to 2 hrs; assay type: ADME, organism-based; design: dose 1.6 mg/kg, route intravenous; details: human, in vivo
[11] = Drug concentration in alveolar macrophages of patient with Streptococcus pneumoniae infections at 1.6 mg/kg, iv administered as single 60 mins infusion measured after 3 to 4 hrs; assay type: ADME, organism-based, Macrophage; design: dose 1.6 mg/kg, route intravenous; details: human, in vivo
[12] = Drug concentration in epithelial lining fluid of patient with Streptococcus pneumoniae infections at 1.6 mg/kg, iv administered as single 60 mins infusion measured after 3 to 4 hrs; assay type: ADME, organism-based; design: dose 1.6 mg/kg, route intravenous; details: human, in vivo
[13] = Drug concentration in alveolar macrophages of patient with Streptococcus pneumoniae infections at 1.6 mg/kg, iv administered as single 60 mins infusion measured after 5.5 to 7 hrs; assay type: ADME, organism-based, Macrophage; design: dose 1.6 mg/kg, route intravenous; details: human, in vivo
[14] = Drug concentration in epithelial lining fluid of patient with Streptococcus pneumoniae infections at 1.6 mg/kg, iv administered as single 60 mins infusion measured after 5.5 to 7 hrs; assay type: ADME, organism-based; design: dose 1.6 mg/kg, route intravenous; details: human, in vivo
[15] = Streptococcus pneumoniae, read-out: MIC50

In the case of O=C(O)c1cn(C2CC2)c2cc(N3CCNCC3)c(F)cc2c1=O [CIPROFLOXACIN], the Activity [1] is reported as 1.7%, the MIC [2] is reported as ≤ 1 µg/mL and the MIC [3] is reported as 2 µg/mL (≈ 6.04 µM). For the same molecule, the MIC [4] was ≥ 4 µg/mL.
Molecule CC[C@H]1OC(=O)[C@H](C)[C@@H](O[C@H]2C[C@@](C)(OC)[C@@H](O)[C@H](C)O2)[C@H](C)[C@@H](O[C@@H]2O[C@H](C)C[C@H](N(C)C)[C@H]2O)[C@](C)(OC)C[C@@H](C)C(=O)[C@H](C)[C@@H](O)[C@]1(C)O [CLARITHROMYCIN] has an Activity [1] of 11.8%.
In the case of C[C@H]1c2cccc(O)c2C(=O)C2=C(O)[C@]3(O)C(=O)C(C(N)=O)=C(O)[C@@H](N(C)C)[C@@H]3[C@@H](O)[C@@H]21.O [DOXYCYCLINE], the Activity [1] is reported as 0.9%.
With COc1cc(Cc2cnc(N)nc2N)c2c(c1OC)OC(C1CC1)C=C2 (stereo unspecified) [ICLAPRIM] the MIC50 [5] was 0.06 µg/mL (≈ 0.169 µM), the MIC50 [5, 15] was ≤ 0.03 µg/mL and the MIC50 [6] was 0.06 µg/mL (≈ 0.169 µM). The MIC50 [6, 15] was ≤ 0.03 µg/mL, the MIC50 [7] was 0.06 µg/mL (≈ 0.169 µM) and the MIC50 [7, 15] was ≤ 0.03 µg/mL. For the same molecule, the MIC50 [8] was 0.06 µg/mL (≈ 0.169 µM), the MIC50 [8, 15] was ≤ 0.03 µg/mL and the Drug uptake [9] was 24.5 µg/mL. The Drug uptake [10] was 12.61 µg/mL, the Drug uptake [11] was 7.16 µg/mL and the Drug uptake [12] was 6.38 µg/mL. The Drug uptake [13] was 5.28 µg/mL and the Drug uptake [14] was 2.66 µg/mL.
For CC1(C)S[C@@H]2[C@H](NC(=O)Cc3ccccc3)C(=O)N2[C@H]1C(=O)O [PENICILLIN G], the Activity [1] was 6.8%.
